This is an account of results in US20250221989A1, “PHARMACEUTICAL COMPOSITION, USE THEREOF, AND METHOD FOR TREATING CANCER” (Genfleet Therapeutics (Shanghai) Inc., priority 2022, published 2025).

Marks after values point to notes of the source that are not given here.

Series [1] has as its system Human rectal adenocarcinoma cells SW837. The experiment in a line: Cell survival rate of SW837 cells under drug combination, Cell Titer-Glo. The settings on record: 120 h. Type of series: cell-based. The procedure:
(§1) The cell survival rate (%) after the drug combinations was calculated by the formula: cell survival rate=(1−(RLU of DMSO control−RLU of treatment)/(RLU of DMSO control−RLU of blank control))×100%. The DMSO control was a vehicle control with no drugs, and the blank control was a medium control with no drugs and vehicles.
(§2) The value corresponding to the coordinates is the cell survival rate of the combination groups with corresponding concentrations of the two drugs.
(§3) The effect of the drug combinations on the tumor cells was evaluated by statistical methods. The statistical software used was R systems, and the statistical models were Bliss, HSA, Loewe, and ZIP. A synergic value>5 indicates a synergic effect, a synergic value>10 indicates a significant synergic effect, a synergic value<−5 indicates an antagonistic effect, and a synergic value<−10 indicates a significant antagonistic effect. The final efficacy of the drug combinations was further judged by the synergic value.
(§4) Human rectal adenocarcinoma cells SW837 were plated into a 384-well plate at 800 cells/well. […] After 120 h, the cell viability was measured by Cell Titer-Glo method. The Cell Titer-Glo reagent was added at 30 μL/well. The plate was shaken for 2 min and left to stand for 10 min. The RLU value was read on the Envision system.
as §4

The test system of series [2] is Human non-small cell lung cancer cells LU99. The experiment in a line: Cell survival rate of LU99 cells under drug combination, Cell Titer-Glo. The settings on record: 120 h. Type of series: cell-based. The method, then: as §1, §2, §3
(§5) Human non-small cell lung cancer cells LU99 were plated into a 384-well plate at 600 cells/well. […] After 120 h, the cell viability was measured by Cell Titer-Glo method. The Cell Titer-Glo reagent was added at 30 μL/well. The plate was shaken for 2 min and left to stand for 10 min. The RLU value was read on the Envision system.
as §5

Series [3] relates to mouse colon cancer CT26 KRAS G12C KI cell subcutaneous graft tumor model. The experiment in a line: In vivo anti-tumor evaluation in mouse CT26 KRASG12C KI subcutaneous graft tumor model. The method, then: The animals and the main evaluation indexes were the same as those of Example 8.
Preparation: the compound of the formula (II) was prepared in a vehicle of 5% DMSO+10% Solutol HS 15+85% (6% HP—β-CD); mPD1 was prepared in PBS.
On day 12 after cell inoculation (DO), the grouping and treatment were started after the mean tumor volume reached 69 mm^3. 32 tumor-bearing mice were selected, randomized into 4 groups of 8 mice each as per the tumor volume and the body weight, and treated according to the administration regimen shown in Table 3. The administration volume in mice was 10 mL/kg. The mice were weighed on an electronic balance twice weekly and the tumor volume was measured with a vernier caliper twice weekly.
The main evaluation indexes were tumor volume, TGI, TWI, and RCBW.

Series [4] has as its system NCI-H2122 human non-small cell lung cancer model. The experiment in a line: In vivo anti-tumor evaluation in NCI-H2122 human non-small cell lung cancer model. On the set-up: species or system BALB/c nude mice. The procedure: During the study, the health of the animals was observed daily. If there was a 10% weight loss in the animals, the administration dose was halved; if there was a 15% weight loss, the […] until a normal body weight was restored; or if the tumor volume in the animals exceeded 2,000 mm^3, the mouse was euthanized immediately. If the health condition met the following criteria, euthanasia was performed by the veterinarian:
BALB/c nude mice, aged 6-8 weeks, female, purchased from Beijing Vital River Laboratory Animal Technology Co., Ltd., Certificate No. 20170011008676, and housed in an SPF-grade environment.
NCI-H2122 cells were cultured in an RPMI 1640 medium containing 10% of FBS and 1% of penicillin-streptomycin in an incubator at 37° C. and 5% CO2. […] When the cells were in the logarithmic growth phase and the confluence reached […], the cells were collected and counted. The cells were collected and adjusted to a final concentration of 2.0×10^6 cells/mL. Mice were grafted subcutaneously at the right dorsal region in a volume of 0.15 mL/3×10^5 cells/mouse. When the tumors grew to an average size of about 242 mm^3 (D5 after grafting), 32 tumor-bearing mice were selected, randomized into 4 groups of 8 mice each as per the tumor volume and the body weight, and treated according to the administration regimen shown in Table 1. The dose in mice was 10 mL/kg. The mice were weighed on an electronic balance twice weekly and the tumor volume was measured with a vernier caliper twice weekly. The study was ended on D17 after grafting, and the mice were euthanized after tumor volume measurement.
Tumor volume (TV)=(L×W^2)/2, where L denotes the long diameter of the tumor, and W is the short diameter of the tumor.
TWI=(1−TWtreatment/Dx/TWcontrol/Dx)×100%, where TWcontrol denotes the average tumor weight (g) of the control group, and TWtreatment denotes the average tumor weight (g) of the treatment group.
RCBW (%)=(BWi−BW0)/BW0×100%, where BWi is the body weight of a mouse on a specific day and BW0 is the body weight of the mouse at the baseline.
All experimental data analysis and graphing were performed using GraphPad Prism software (GraphPad Software). Tumor volumes and the body weights of the animals in all groups were statistically compared using two-way ANOVA, Dunnett's multiple comparisons test. Tumor weights of the groups at the endpoint were statistically compared using one-way ANOVA, Dunnett's multiple comparisons test. P<0.05 denotes a statistically significant difference. The tumor volume and weight and body weight of animals are expressed by mean±standard error (SEM).

The test system of series [5] is Human non-small cell lung cancer cells NCI-H2122. The experiment in a line: Cell survival rate of NCI-H2122 cells under drug combination, Cell Titer-Glo. In kind it is cell-based. The settings on record: 120 h. The method, then: as §1
The value corresponding to the coordinates is the cell survival rate of the combination groups with corresponding concentrations of the two drugs. For example, in FIG. 1, when the horizontal coordinate read is 0 nM and the vertical coordinate read is 10.03 nM, the value corresponding to the coordinates is 86.1.
as §3
Human non-small cell lung cancer cells NCI-H2122 were plated into a 384-well plate at 600 cells/well. […] After 120 h, the cell viability was measured by Cell Titer-Glo method. […] The RLU value was read on the Envision system.

For series [6], the system named is Human rectal adenocarcinoma cells SW1463. The experiment in a line: Cell survival rate of SW1463 cells under drug combination, Cell Titer-Glo. In kind it is cell-based. The settings on record: 120 h. The method, then:
as §1, §2, §3
(§6) After 120 h, the cell viability was measured by Cell Titer-Glo method. The Cell Titer-Glo reagent was added at 30 μL/well. The plate was shaken for 2 min and left to stand for 10 min. The RLU value was read on the Envision system.

The test system of series [7] is Human non-small cell lung cancer cells SW1573. The experiment in a line: Cell survival rate of SW1573 cells under drug combination, Cell Titer-Glo. Type of series: cell-based. The settings on record: 120 h. The procedure:
as §1, §2, §3, §6

Setting [8] is: Day 33, compound of formula (II) 3 mpk (D 0-9) & 1 mpk (D 10-20) p.o. q.d., mPD1 10 mpk i.p. biw.
The mark [9] stands for this setting: after 21 days treatment, compound of formula (II) 3 mpk (D 0-9) & 1 mpk (D 10-20) p.o. q.d., mPD1 10 mpk i.p. biw.
[10] abbreviates: Day 17, compound of formula (II) 10 mpk p.o. q.d., cetuximab 1 mpk i.p. biw.
Setting [11] is: after 12 days treatment, mean ± SEM, compound of formula (II) 10 mpk p.o. q.d., cetuximab 1 mpk i.p. biw.

Consider `Cc1nc(NC(=O)N2CCC[C@H]2C(N)=O)sc1-c1ccnc(C(C)(C)C(F)(F)F)c1` [BYL719, Alpelisib, reference compound], for which the cell survival rate in series [1] (SW837, Example 2, 10000 nM BYL719 alone) amounted to 62.9%; in series [2] (LU99, Example 1, 1000 nM BYL719 alone), 62.6%.
Turning to `C=CC(=O)N1CCN2c3c(c(=O)n(-c4c(C)ccnc4C(C)C)c4nc(-c5c(O)cccc5F)c(Cl)cc34)N(C)C(=O)[C@H]2C1` [Compound of formula (II), (4aR,8R)-3-acryloyl-11-chloro-10-(2-fluoro-6-hydroxyphenyl)-8-(2-isopropyl-4-methylpyridin-3-yl)-6-methyl-2,3,4,4a,6,8-hexahydro-1H-pyrazino[1′,2′: 4,5] pyrazino[2,3-c][1,8]naphthyridine-5,7-dione], in series [3] (CT26 KRAS G12C KI subcutaneous graft tumor model), the “tumor inhibitory effect (in words)” value is listed as “mild tumor inhibitory effects”. Besides, the TGI in series [3] (setting [8]) is 46.74%; in series [4] (setting [10]) it was 73.81%. Moreover, the TWI in series [3] (setting [8]) worked out at 35.38%; in series [4] (setting [10]) it was 49.37%. The “Body weight After grafting Day 33” value in series [3] (setting [9]) came to 22.76 ± 0.37 g. The “Tumor volume Day 33 after grafting” value is listed as 1065.38 ± 251.12 mm^3 in series [3] (setting [9]) and 1,065 mm^3 in series [3] (after 21 days treatment, compound of formula (II) 3 mpk (D 0-9) & 1 mpk (D 10-20) p.o. q.d., mPD1 10 mpk i.p. biw, listed as compound of formula (II)). Moreover, in series [3] (baseline at grouping (D0), mean ± SEM, n=8), the “Tumor volume After grafting Day 12” value is recorded as 68.75 ± 6.65 mm^3. For the same compound, the “Body weight Day 12 after grafting” value in series [3] (baseline, mean ± SEM) is 21.29 ± 0.29 g. Moreover, the “Tumor weight After grafting Day 33” value in series [3] (endpoint, compound of formula (II) 3 mpk (D 0-9) & 1 mpk (D 10-20) p.o. q.d., mPD1 10 mpk i.p. biw) was determined as 1.84 ± 1.12 g. The same compound displayed a T/C in series [3] (mean tumor volume at end of study, compound of formula (II) 3 mpk (D 0-9) & 1 mpk (D 10-20) p.o. q.d., mPD1 10 mpk i.p. biw) of 54.92%. Moreover, the “Body weight After grafting Day 17” value in series [4] (setting [11]) was 20.97 ± 0.38 g. In addition, the “Tumor volume After grafting Day17” value in series [4] (setting [11]) is 479.14 ± 58.84*** mm^3. Also, in series [4] (baseline, mean ± SEM), the “Body weight After grafting Day 5” value was 21.16 ± 0.47 g. Besides, the “Tumor weight After grafting Day 17” value in series [4] (endpoint, mean ± SEM, compound of formula (II) 10 mpk p.o. q.d., cetuximab 1 mpk i.p. biw) came out at 0.30 ± 0.04 g. The cell survival rate in series [5] (NCI-H2122, Example 7, 3.17 nM compound of formula (II) alone) stood at 60.7%; in series [1] (SW837, Example 2, 31.69 nM compound of formula (II) alone), 60.2%; in series [1] (SW837, Example 4, 31.69 nM compound of formula (II) alone), 56.2%; in series [6] (SW1463, Example 5, 31.69 nM compound of formula (II) alone), 43.2%; in series [7] (SW1573, Example 6, 100 nM compound of formula (II) alone), 86.4%; in series [2] (LU99, Example 1, 100 nM compound of formula (II) alone), 83%. Besides, the cell survival rate in series [2] (LU99, Example 3, 100 nM compound of formula (II) alone) turned out to be 83.8%; in series [2] (LU99, FIG. 1, coordinates 0 nM / 10.03 nM, stated as compound of formula (II) alone (BYL719 0 nM)) it was 86.1%.
For `CS(=O)(=O)N1CCN(Cc2cc3nc(-c4cccc5[nH]ncc45)nc(N4CCOCC4)c3s2)CC1` [GDC0941, Pictilisib, reference compound], the cell survival rate in series [1] (SW837, Example 4, 1000 nM GDC0941 alone) is 67.6%; in series [6] (SW1463, Example 5, 1000 nM GDC0941 alone) it was 64.6%; in series [7] (SW1573, Example 6, 3164 nM GDC0941 alone) it was 46%; in series [2] (LU99, Example 3, 100 nM GDC0941 alone), 85.4%.
As for `CC1(C)CC[C@H](Nc2ncc(C(F)(F)F)c(-c3c[nH]c4c(P(C)(C)=O)c(C#N)ccc34)n2)CN1` [SY-5609, reference compound], in series [5] (NCI-H2122, Example 7, 31.69 nM SY-5609 alone), the cell survival rate was found to be 57.5%.
